The record followed here is patent US5807886A, “Bicyclic amidine dervatives as inhibitors of nitric oxide synthetase” (priority 1994, dated 1998).

Assay [1] has as its target T1, neuronal nitric oxide synthetase (Rattus norvegicus, UniProt P29476).
T1 construct: Enzyme was isolated from rat hippocampus or cerebellum; from tissue; host or cells: male Sprague-Dawley rat cerebellum or hippocampus, 20,000 g supernatant
Put plainly: Screen A: neuronal nitric oxide synthetase inhibiting activity. It is filed as biochemical. The settings on record: enzyme from rat hippocampus or cerebellum; 22° C., pH 7.4, 10 minutes; read-out: IC50 in Screen A (neuronal isoform).
Experimental: Enzyme was isolated from rat hippocampus or cerebellum. The cerebellum or hippocampus of a male Sprague-Dawley rat (250-275 g) is removed following CO2 anaesthesia of the animal and decapitation. Cerebellar or hippocampal supernatant is prepared by homogenisation in 50 mM Tris-HCl with 1 mM EDTA buffer (pH 7.2 at 25° C.) and centifugation for 15 minutes at 20,000 g. Residual L-arginine is removed from the supernatant by chromatography through Dowex AG-50W-X8 sodium form and hydrogen form columns successively, and further centrifugation at 1000 g for 30 seconds. […]
Labelled L-citrulline is separated from labelled L-arginine by chromatography over a Dowex AG-50W-X8 200-400 mesh column. 1 ml of each terminated reaction is added to an individual 1 ml column and the eluant combined with that from two 1 ml distilled water washes and 16 ml of scintillation cocktail The L-citrulline is then quantified by scintillation counting. […]

The target in assay [2] is T2, endothelial nitric oxide synthetase (Homo sapiens, UniProt P29474).
T2 construct: Enzyme may be isolated from human umbilical vein endothelial cells (HUVECs); endogenous in cells; host or cells: HUVECs (cells purchased from Clonetics Corp, San Diego); CHAPS-solubilised pellet supernatant
T2 sequence (P29474 2-1203): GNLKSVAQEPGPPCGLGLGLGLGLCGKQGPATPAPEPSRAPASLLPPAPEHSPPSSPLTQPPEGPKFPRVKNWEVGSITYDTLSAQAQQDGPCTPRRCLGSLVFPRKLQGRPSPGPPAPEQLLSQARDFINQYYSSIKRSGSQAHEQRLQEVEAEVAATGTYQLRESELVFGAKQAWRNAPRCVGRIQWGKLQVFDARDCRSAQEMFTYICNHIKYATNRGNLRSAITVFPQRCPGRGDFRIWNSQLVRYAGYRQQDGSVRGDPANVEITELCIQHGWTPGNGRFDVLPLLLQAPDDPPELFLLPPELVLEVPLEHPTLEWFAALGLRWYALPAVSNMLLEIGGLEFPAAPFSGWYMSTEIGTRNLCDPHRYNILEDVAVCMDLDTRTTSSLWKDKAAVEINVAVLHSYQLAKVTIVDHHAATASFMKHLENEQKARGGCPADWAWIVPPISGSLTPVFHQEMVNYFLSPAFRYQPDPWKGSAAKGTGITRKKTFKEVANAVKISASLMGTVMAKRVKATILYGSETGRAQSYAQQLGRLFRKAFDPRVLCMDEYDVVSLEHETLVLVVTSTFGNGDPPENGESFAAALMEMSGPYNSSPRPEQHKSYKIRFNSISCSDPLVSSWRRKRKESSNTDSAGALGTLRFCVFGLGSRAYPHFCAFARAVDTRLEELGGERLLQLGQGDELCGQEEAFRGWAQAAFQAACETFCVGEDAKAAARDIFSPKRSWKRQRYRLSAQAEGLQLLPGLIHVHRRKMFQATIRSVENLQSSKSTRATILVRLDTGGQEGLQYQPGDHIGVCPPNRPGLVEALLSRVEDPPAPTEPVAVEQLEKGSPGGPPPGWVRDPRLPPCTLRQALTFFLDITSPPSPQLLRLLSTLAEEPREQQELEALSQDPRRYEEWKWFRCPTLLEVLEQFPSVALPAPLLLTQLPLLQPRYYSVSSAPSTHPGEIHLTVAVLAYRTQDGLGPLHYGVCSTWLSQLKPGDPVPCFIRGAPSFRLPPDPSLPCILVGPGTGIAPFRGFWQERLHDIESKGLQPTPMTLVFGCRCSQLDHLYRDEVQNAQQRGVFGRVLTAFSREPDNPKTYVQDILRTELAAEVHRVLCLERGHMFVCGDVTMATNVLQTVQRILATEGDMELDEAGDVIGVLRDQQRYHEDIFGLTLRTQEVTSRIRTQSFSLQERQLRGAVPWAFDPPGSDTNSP
Put plainly: Screen C: endothelial nitric oxide synthetase inhibiting activity. It is filed as biochemical.
Experimental: HUVECs were purchased from Clonetics Corp (San Diego, Calif. USA) and cultured to confluency. Cells can be maintained to passage 35-40 without significant loss of yield of nitric oxide synthetase. When cells reach confluency, they are resuspended in Dulbecco's phosphate buffered saline, centrifuged at 800 rpm for 10 mins, the cell pellet homogenised in ice-cold 50 mM Tris-HCl , 1 mM EDTA, 10% glycerol, 1 mM phenylmethylsulphonylfluoride, 2 μM leupeptin at pH 4.2. Following centrifugation at 34,000 rpm for 60 mins, the pellet is solubilised in the homogenisation buffer which also contains 20 mM CHAPS. After a 30 min incubation on ice, the suspension is centrifuged at 34,000 rpm for 30 mins. The resulting supernatant is stored at -80° C. until use. […]
Labelled L-citrulline is separated from labelled L-arginine by chromatography over a Dowex AG-50W-X8 200-400 mesh column. […] The L-citrulline is then quantified by scintillation counting. […]

Assay [3] concerns the target T3, macrophage nitric oxide synthetase (Mus musculus, UniProt P29477).
T3 construct: Enzyme is prepared, after induction, from the cultured murine macrophage cell line J774A-1; endogenous in cells; host or cells: J774A-1 murine macrophages induced with LPS and IFN-gamma (lysate); cells from laboratories of the Imperial Cancer Research Fund
The assay is described as follows: Screen B: macrophage nitric oxide synthetase inhibiting activity. As to conditions: macrophage IC50 / neuronal IC50. Type of assay: biochemical, murine. The source says: The enzyme nitric oxide synthetase has a number of isoforms and compounds of formula I, or pharmaceutically acceptable salts thereof, may be screened for nitric oxide synthetase inhibiting activity by procedures based on those of Bredt and Snyder in Proc. Natl. Acad. Sci. (1990) 87, 682-685 and Forstermann et. al., Eur. J. Pharm. (1992) 225, 161-165 as follows. Nitric oxide synthetase converts ^3 H-L-arginine to ^3 H-L-citrulline which can be separated by cation exchange chromatography and quantified by scintillation counting.
Enzyme is prepared, after induction, from the cultured murine macrophage cell line J774A-1 (obtained from laboratories of the Imperial Cancer Research Fund).
J774A-1 cells are cultured in Dulbecco's Modified Eagles Medium (DMEM) supplemented with 10% foetal bovine serum, 4 mM L-glutamine and antibiotics (100 units/ml penicillin G, 100 μg/ml streptomycin & 0.25 μg/ml amphotericin B).
Cells are routinely grown in 225 cm^2 flasks containing 35 ml medium kept at 37° C. and in a humidified atmosphere containing 5% CO2.
Nitric oxide synthetase is produced by cells in response to interferon-γ (IFNγ) and lipopolysaccharide (LPS). […]
Labelled L-citrulline is separated from labelled L-arginine using Dowex AG-50W. […] After allowing the samples to dry the L-citrulline is quantified by scintillation counting. […]

T1 sequence (P29476 whole entry): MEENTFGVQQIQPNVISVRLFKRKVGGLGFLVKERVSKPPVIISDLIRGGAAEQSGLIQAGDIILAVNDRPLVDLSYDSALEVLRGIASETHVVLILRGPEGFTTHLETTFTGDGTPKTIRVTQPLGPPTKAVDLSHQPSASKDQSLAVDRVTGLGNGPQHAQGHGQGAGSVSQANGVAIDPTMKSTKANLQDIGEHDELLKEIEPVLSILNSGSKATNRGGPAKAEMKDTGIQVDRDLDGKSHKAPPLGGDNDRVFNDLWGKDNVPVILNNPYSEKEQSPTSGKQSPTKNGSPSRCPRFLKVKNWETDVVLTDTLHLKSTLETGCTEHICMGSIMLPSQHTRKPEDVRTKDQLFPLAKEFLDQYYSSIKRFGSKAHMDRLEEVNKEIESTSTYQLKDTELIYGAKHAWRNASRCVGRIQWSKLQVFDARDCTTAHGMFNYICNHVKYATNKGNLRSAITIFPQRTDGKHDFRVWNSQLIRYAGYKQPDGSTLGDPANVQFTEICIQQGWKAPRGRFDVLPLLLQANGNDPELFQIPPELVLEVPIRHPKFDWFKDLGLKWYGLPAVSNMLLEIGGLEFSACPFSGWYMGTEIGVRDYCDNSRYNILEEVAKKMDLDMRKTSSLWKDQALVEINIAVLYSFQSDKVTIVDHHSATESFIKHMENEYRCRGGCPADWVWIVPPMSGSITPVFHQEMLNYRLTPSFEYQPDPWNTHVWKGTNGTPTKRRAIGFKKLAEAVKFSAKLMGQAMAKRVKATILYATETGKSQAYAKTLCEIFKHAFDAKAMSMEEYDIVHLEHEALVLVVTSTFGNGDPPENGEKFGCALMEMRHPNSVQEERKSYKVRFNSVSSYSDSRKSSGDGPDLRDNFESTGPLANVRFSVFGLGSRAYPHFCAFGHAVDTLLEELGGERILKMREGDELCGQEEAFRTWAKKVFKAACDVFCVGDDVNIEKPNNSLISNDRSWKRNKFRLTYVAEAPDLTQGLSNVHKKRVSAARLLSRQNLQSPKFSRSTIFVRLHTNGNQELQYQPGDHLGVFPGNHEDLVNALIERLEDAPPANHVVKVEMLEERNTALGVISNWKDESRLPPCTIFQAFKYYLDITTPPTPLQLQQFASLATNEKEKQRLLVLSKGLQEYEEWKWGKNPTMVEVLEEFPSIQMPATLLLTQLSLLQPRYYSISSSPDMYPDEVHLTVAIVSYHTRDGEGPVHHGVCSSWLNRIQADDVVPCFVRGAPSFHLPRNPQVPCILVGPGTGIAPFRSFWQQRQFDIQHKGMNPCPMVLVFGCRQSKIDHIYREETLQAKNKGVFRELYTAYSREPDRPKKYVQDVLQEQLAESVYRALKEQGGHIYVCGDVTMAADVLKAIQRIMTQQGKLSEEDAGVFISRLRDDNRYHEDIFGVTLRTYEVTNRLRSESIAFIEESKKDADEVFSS

Usually IC50 stands for the point on the concentration scale where inhibition reaches its midpoint. On to `N=C(Nc1ccc2c(c1)CC(NCc1ccccc1)C2)c1cccs1` (stereo not shown) [Example 1, N-((2-(Phenylmethyl)amino)indan-5-yl)-2-thiophenecarboximidamide dioxalate], for which, in assay [1], the IC50 is less than 10 µM. For the same compound, the “IC50 in Screen C relative to that obtained in Screen A (selectivity)” value in assay [2] (endothelial IC50 / neuronal IC50) is reported as “more than 10 times”. In assay [3], the “IC50 in Screen B relative to that obtained in Screen A (selectivity)” value is “more than 10 times”.
For orientation: inhibition means the change of the read-out against control, counted positive when it falls. `N=C(NCCC[C@H](N)C(=O)O)N[N+](=O)[O-]` [N-nitro-L-arginine, reference compound]: the inhibition at 1 µM in assay [2] (at a concentration of 1 μM, HUVEC enzyme, read-out: inhibition of nitric oxide synthetase (reference standard, Screen C)) was in the range of 70 to 90%.
